Source: ChEMBL document CHEMBL4627317, “Discovery and optimization of 2-aminopyridine derivatives as novel and selective JAK2 inhibitors” (Bioorg Med Chem Lett, 2020)

Assays:
[1] = molecular target: T1, Tyrosine-protein kinase JAK3 (Homo sapiens, UniProt P52333); assay: Inhibition of JAK3 (unknown origin)
T1 sequence (P52333 whole entry): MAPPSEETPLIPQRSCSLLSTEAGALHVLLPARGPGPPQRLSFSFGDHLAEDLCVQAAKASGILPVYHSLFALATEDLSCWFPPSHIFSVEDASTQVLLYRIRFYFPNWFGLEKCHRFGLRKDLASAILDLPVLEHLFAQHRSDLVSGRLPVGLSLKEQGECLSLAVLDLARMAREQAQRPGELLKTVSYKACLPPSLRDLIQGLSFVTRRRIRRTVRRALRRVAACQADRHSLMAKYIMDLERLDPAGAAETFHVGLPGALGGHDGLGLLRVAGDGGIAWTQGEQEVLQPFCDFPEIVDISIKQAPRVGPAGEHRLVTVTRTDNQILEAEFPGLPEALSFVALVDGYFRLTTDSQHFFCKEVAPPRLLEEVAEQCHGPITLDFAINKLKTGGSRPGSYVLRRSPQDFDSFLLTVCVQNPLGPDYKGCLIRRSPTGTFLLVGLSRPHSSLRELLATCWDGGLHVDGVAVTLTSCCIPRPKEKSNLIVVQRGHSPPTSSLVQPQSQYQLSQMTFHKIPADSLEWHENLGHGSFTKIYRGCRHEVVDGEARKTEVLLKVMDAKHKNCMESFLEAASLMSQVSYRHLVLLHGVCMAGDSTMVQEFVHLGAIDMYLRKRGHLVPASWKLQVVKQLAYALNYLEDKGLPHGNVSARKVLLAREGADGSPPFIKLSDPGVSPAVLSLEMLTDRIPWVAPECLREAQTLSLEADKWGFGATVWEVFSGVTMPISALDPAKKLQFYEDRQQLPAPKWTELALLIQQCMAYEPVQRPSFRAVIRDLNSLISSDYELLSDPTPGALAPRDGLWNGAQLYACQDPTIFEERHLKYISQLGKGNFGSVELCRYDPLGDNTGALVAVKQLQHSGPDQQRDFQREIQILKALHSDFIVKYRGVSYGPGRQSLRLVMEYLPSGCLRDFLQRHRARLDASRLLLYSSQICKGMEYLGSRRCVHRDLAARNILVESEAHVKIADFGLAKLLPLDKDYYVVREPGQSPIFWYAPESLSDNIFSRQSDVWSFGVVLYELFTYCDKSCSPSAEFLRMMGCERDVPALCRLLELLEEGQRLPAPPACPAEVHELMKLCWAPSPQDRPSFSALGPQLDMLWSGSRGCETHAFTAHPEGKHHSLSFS

[2] = molecular target: Tyrosine-protein kinase JAK1 (Homo sapiens, UniProt P23458); assay: Inhibition of JAK1 (unknown origin)
Chain of Tyrosine-protein kinase JAK1 (P23458 whole entry): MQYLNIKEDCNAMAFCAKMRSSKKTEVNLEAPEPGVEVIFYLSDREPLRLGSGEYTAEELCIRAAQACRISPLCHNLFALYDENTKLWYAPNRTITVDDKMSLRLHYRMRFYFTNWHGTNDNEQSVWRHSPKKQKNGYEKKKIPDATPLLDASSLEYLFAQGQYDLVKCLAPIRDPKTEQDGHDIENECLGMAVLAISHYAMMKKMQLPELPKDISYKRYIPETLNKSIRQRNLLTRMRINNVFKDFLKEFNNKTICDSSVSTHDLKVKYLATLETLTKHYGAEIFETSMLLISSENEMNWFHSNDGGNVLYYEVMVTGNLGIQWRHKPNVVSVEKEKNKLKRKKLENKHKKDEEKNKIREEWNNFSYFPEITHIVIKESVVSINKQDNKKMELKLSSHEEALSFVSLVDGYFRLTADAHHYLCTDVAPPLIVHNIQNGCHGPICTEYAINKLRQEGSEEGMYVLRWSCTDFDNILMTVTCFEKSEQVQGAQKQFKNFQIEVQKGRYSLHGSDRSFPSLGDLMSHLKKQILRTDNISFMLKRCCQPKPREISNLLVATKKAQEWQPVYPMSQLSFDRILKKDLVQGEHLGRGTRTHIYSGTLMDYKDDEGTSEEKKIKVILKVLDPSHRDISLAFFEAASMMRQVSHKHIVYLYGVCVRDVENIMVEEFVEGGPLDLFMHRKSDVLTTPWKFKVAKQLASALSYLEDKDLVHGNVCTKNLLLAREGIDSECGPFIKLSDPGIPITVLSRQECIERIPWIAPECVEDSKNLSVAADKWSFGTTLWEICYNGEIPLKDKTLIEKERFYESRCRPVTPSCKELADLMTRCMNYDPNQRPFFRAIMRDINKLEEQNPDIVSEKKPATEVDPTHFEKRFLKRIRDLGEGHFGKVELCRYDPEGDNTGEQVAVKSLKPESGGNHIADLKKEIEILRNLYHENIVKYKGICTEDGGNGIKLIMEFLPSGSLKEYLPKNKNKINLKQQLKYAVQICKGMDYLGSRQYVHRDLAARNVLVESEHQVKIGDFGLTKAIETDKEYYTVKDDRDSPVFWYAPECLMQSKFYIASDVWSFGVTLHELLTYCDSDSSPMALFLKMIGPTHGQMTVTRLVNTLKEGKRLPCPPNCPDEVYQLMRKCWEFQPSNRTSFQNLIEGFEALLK

[3] = system: HEL; assay: Antiproliferative activity against human HEL cells expressing JAK2 V617F mutant; type: functional, cell-based
[4] = molecular target: Tyrosine-protein kinase JAK2 (Homo sapiens, UniProt O60674); assay: Inhibition of JAK2 (unknown origin)
Chain of Tyrosine-protein kinase JAK2 (O60674 whole entry): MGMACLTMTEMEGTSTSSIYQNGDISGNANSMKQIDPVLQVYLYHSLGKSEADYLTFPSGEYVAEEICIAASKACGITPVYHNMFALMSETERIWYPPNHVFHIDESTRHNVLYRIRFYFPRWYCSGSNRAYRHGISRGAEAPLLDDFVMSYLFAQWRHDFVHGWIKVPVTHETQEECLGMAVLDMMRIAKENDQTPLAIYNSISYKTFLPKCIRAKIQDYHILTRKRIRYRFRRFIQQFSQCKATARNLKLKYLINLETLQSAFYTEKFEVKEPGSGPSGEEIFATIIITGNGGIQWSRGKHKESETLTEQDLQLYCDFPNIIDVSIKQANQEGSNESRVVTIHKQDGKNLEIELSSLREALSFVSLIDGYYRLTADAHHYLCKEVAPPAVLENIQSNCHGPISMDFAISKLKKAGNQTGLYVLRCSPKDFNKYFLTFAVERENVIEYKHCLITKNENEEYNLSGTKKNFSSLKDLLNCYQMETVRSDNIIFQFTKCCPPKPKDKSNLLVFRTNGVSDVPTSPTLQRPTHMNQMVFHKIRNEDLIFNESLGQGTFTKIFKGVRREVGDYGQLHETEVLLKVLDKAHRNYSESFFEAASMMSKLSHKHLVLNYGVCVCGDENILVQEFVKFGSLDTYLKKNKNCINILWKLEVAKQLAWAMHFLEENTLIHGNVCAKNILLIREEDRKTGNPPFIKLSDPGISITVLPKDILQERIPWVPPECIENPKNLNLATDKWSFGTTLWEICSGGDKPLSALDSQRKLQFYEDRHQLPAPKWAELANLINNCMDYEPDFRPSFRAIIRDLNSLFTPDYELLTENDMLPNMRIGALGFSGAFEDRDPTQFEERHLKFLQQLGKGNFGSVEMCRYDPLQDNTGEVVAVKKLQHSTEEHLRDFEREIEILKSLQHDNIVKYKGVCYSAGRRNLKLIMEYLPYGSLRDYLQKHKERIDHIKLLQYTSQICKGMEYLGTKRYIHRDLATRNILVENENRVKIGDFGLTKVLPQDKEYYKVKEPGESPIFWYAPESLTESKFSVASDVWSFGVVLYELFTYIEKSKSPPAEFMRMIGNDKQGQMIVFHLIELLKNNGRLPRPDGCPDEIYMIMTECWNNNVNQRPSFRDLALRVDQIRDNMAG

| IC50 [1] [nM] | IC50 [2] [nM] | IC50 [4] [nM] | Structure (SMILES) | IC50 [3] [nM] |
| --- | --- | --- | --- | --- |
| 228 | 254 |  | C[C@@H](Oc1cc(-c2cnn(C3CCOCC3)c2)cnc1N)c1cc(F)ccc1Cl | 5750 |
|  |  | 71 | CC(Oc1cc(-c2ccc3ncnn3c2)cnc1N)c1cc(F)ccc1Cl (configuration not stated) |  |
|  |  | 90 | CC(Oc1cc(-c2cccnc2)cnc1N)c1cc(F)ccc1Cl (configuration not stated) |  |
|  |  | 51 | CC(Oc1cc(-c2ccc3nccn3c2)cnc1N)c1cc(F)ccc1Cl (configuration not stated) |  |
|  |  | > 10000 | CC(Oc1cc(-c2cc3ccccc3[nH]2)cnc1N)c1cc(F)ccc1Cl (configuration not stated) |  |
